System: Mus musculus
[1] = reproduction developmental, oral, gavage, M, C57BL/6, generation: F1, F1: spleen: mean percent splenic CD4+CD25+Foxp3+ T cells
[2] = short-term, duration: 4 weeks, oral, gavage, M, TNF-alpha mRNA levels in liver (normalized to GAPDH)
[3] = short-term, duration: 4 days, dermal, F, BALB/c, body weight + thymus: thymus: absolute weight
[4] = short-term, duration: 10 days, oral, diet, M, C57BL/6, bone marrow: bone marrow: no. of CD19+ B-lymphoid cells + bone marrow: bone marrow: no. of early mature CD19+CD138-IgM+ B cells + bone …
[5] = short-term, duration: 10 days, oral, diet, M, C57BL/6, serum AH50 + serum C3 + serum CH50

Structure (SMILES): O=C([O-])C(F)(F)C(F)(F)C(F)(F)C(F)(F)C(F)(F)C(F)(F)C(F)(F)F.[NH4+] [Ammonium perfluorooctanoate]
- LOEL (acute, duration: 1 days, injection, intraperitoneal, serum histamine content): 1 mg/kg-day
- NOEL (developmental, duration: 9 days, oral, drinking water, F, C57BL/6, generation: F1, F1: IgM antibody titer (SRBC) + F1: spleen: spleen: relative weight + F1: thymus: thymus: relative weight): 6.7 mg/L
- NOEL (developmental, duration: 16 days, oral, gavage, F, CD1, generation: F1, F1: spleen: spleen: relative weight (ovx)): 5 mg/kg-day
- NOEL (reproduction developmental, oral, diet, M/F, BALB/c, generation: F1, F1: airway MCh sensitivity + F1: airway resistance (at 25 mg/mL methacholine) + F1: lung: BALF inflammatory cell counts: eosinophils + F1: …): 4 ppm
- LOEL (reproduction developmental, oral, diet, M/F, BALB/c, generation: F1, F1: airway MCh sensitivity + F1: airway resistance (at 25 mg/mL methacholine) + F1: lung: BALF inflammatory cell counts: macrophages + F1: …): 4 ppm
- NOEL (reproduction developmental, oral, gavage, F, C57BL/6, generation: F1, F1: mean serum anti-MBP): 2 mg/kg-day
- NOEL (reproduction developmental, oral, gavage, F, C57BL/6, generation: F1, F1: mean serum anti-dsDNA + F1: spleen: mean percent splenic CD4+CD25+Foxp3+ T cells): 0.2 mg/kg-day
- LOEL (reproduction developmental, oral, gavage, F, C57BL/6, generation: F1, F1: mean serum anti-ssDNA + F1: spleen (CD4+CD25+): IL-10 levels): 0.02 mg/kg-day
- LOEL (reproduction developmental, oral, gavage, F, C57BL/6, generation: F1, F1: spleen: mean percent splenic CD4+CD25+Foxp3+ T cells): 2 mg/kg-day
- NOEL (reproduction developmental, oral, gavage, M, C57BL/6, generation: F1, F1: mean serum anti-dsDNA + F1: mean serum anti-MBP + F1: mean serum anti-ssDNA): 2 mg/kg-day
- LOEL (reproduction developmental, oral, gavage, M, C57BL/6, generation: F1, F1: spleen (CD4+CD25+): IL-10 levels): 0.02 mg/kg-day
- LOEL [1]: 2 mg/kg-day
- NOEL [1]: 0.2 mg/kg-day
- NOEL (short-term, duration: 3 weeks, oral, diet, M, C57BL/6, fold changes of proinflammatory cytokine genes in liver: IL-1b gene (relative to control) + fold changes of proinflammatory cytokine genes …): 5 mg/kg-day
- LOEL (short-term, duration: 3 weeks, oral, diet, M, C57BL/6, fold changes of proinflammatory cytokine genes in liver: IP-10 gene (relative to control) + fold changes of proinflammatory cytokine genes …): 5 mg/kg-day
- NOEL (short-term, duration: 3 weeks, oral, gavage, F, BALB/c, IgM antibody level (TNP 1:50)): 20 mg/kg-day
- NOEL (short-term, duration: 4 weeks, oral, gavage, M, 129S4/SvlmJ, TNF-alpha mRNA levels in liver (normalized to GAPDH)): 21.6 mg/kg-day
- LOEL [2]: 10.8 mg/kg-day
- NOEL [2]: 5.39 mg/kg-day
- NOEL (short-term, duration: 2 days, oral, diet, M, C57BL/6, spleen: spleen: absolute weight + thymus: thymus: absolute weight + thymus: total thymic DNA content): 0.02%
- LOEL (short-term, duration: 2 days, oral, diet, M, C57BL/6, spleen: total splenic DNA content): 0.02%
- NOEL (short-term, duration: 4 days, dermal, F, BALB/c, OVA-specific IgE): 1.5%
- LOEL (short-term, duration: 4 days, dermal, F, BALB/c, PCA passive cutaneous anaphylaxis): 10 mg/kg-day
- LOEL (short-term, duration: 4 days, dermal, F, BALB/c, blood serum: OVA-specific IgE + blood serum: total serum IgE + OVA-specific airway hyperreactivity (AUC) + spleen: spleen B220+ cells + …): 1%
- NOEL (short-term, duration: 4 days, dermal, F, BALB/c, blood serum: OVA-specific IgE + blood serum: total serum IgE + OVA-specific airway hyperreactivity (AUC) + thymus: thymus cellularity + …): 0.75%
- NOEL (short-term, duration: 4 days, dermal, F, BALB/c, blood serum: OVA-specific IgE + spleen: spleen B220+ cells + spleen: spleen: absolute weight + thymus: thymus: absolute weight + total serum…): 0.5%
- LOEL (short-term, duration: 4 days, dermal, F, BALB/c, blood serum: OVA-specific IgE + thymus: thymus: absolute weight + total serum IgE): 0.75%
- LOEL [3]: 1.5%
- NOEL [3]: 1%
- LOEL (short-term, duration: 4 days, dermal, F, BALB/c, spleen: spleen cellularity + spleen: spleen: absolute weight): 0.5%
- LOEL (short-term, duration: 5 days, oral, diet, M, C57BL/6, spleen: spleen: absolute weight + spleen: total splenic DNA content + thymus: thymus: absolute weight + thymus: total thymic DNA content): 0.02%
- LOEL (short-term, duration: 7 days, oral, diet, M, C57BL/6, blood serum: TNF-alpha levels): 0.02%
- LOEL (short-term, duration: 7 days, oral, diet, M, C57BL/6, body weight + spleen: lymphocyte proliferation (ConA) + spleen: lymphocyte proliferation (LPS) + spleen: spleen CD19+ cells + spleen: spleen…): 0.02%
- NOEL (short-term, duration: 7 days, oral, diet, M, C57BL/6, cell cycle of splenocytes: G0/G1 phase + cell cycle of splenocytes: G1/2 phase + cell cycle of splenocytes: G2/M phase): 0.02%
- LOEL (short-term, duration: 7 days, oral, diet, M, C57BL/6, cell cycle of splenocytes: S phase + cell cycle of thymocytes: G0/G1 phase + cell cycle of thymocytes: G1/2 phase + cell cycle of thymocytes…): 0.02%
- LOEL (short-term, duration: 7 days, oral, diet, M, C57BL/6, lymphocyte proliferation in response to ConA (1 day culture) + lymphocyte proliferation in response to ConA (2 day culture) + lymphocyte …): 200 mg/kg-day
- NOEL (short-term, duration: 7 days, oral, diet, M, C57BL/6, spleen: splenocytes in G0/1 phase + splenocytes in G1/2 phase + splenocytes in G2/M phase): 200 mg/kg-day
- LOEL (short-term, duration: 7 days, oral, diet, M, body weight + spleen: spleen CD19+ cells + spleen: spleen CD3+ cells + spleen: spleen cellularity + thymocyte G0/1 phase + thymocyte G1/2 …): 0.02%
- NOEL (short-term, duration: 7 days, oral, diet, M, spleen: lymphocyte proliferation (ConA) + spleen: lymphocyte proliferation (LPS)): 0.02%
- LOEL (short-term, duration: 7 days, oral, gavage, F, BALB/c, Peripheral blood phagocytosis (HEMA) + spleen: lymphocyte proliferation (ConA) + spleen: lymphocyte proliferation (LPS) + Splenic NK cell …): 20 mg/kg-day
- NOEL (short-term, duration: 7 days, oral, gavage, F, BALB/c, spleen: spleen CD4+ cells + spleen: spleen CD49b+ cells + spleen: spleen CD8+ cells + spleen: spleen cellularity + spleen: spleen: relative …): 20 mg/kg-day
- LOEL (short-term, duration: 10 days, oral, diet, M, C57BL/6, IgG1 antibody-secreting cells (HRBC) + IgG1 antibody level (HRBC 1:160) + IgG1 antibody level (HRBC 1:20) + IgG1 antibody level (HRBC 1:80…): 0.02%
- NOEL (short-term, duration: 10 days, oral, diet, M, C57BL/6, IgG3 antibody-secreting cells (HRBC) + IgM antibody-secreting cells (HRBC) + IgM antibody level (HRBC 1:160)): 0.02%
- LOEL (short-term, duration: 10 days, oral, diet, M, C57BL/6, blood serum: IL-6 levels + blood serum: IL-6 levels (+LPS in vivo) + blood serum: TNF-alpha levels (+LPS in vivo) + bone marrow: IL-6 levels…): 0.02%
- NOEL (short-term, duration: 10 days, oral, diet, M, C57BL/6, blood serum: TNF-alpha levels + bone marrow: IL-6 levels + spleen: IL-6 levels): 0.02%
- LOEL (short-term, duration: 10 days, oral, diet, M, C57BL/6, bone marrow: bone marrow cellularity + bone marrow: bone marrow: no. of Gr1+CD11b+ myeloid cells + bone marrow: bone marrow: no. of immature…): 0.02%
- NOEL (short-term, duration: 10 days, oral, diet, M, C57BL/6, bone marrow: bone marrow cellularity + bone marrow: bone marrow: no. of Gr1+CD11b+ myeloid cells + spleen: spleen cellularity + spleen: …): 0.002%
- LOEL [4]: 0.002%
- NOEL [4]: 0.001%
- NOEL (short-term, duration: 10 days, oral, diet, M, C57BL/6, intrahepatic immune cells: all leukocytes (CD45+) + intrahepatic immune cells: B cells (CD19+) + intrahepatic immune cells: CD138 (plasma …): 0.002%
- LOEL (short-term, duration: 10 days, oral, diet, M, C57BL/6, intrahepatic immune cells: all leukocytes (CD45+) + intrahepatic immune cells: B cells (CD19+) + intrahepatic immune cells: cytotoxic T …): 0.002%
- NOEL (short-term, duration: 10 days, oral, diet, M, C57BL/6, liver: IFN-gamma levels (+Con A in vivo) + liver: IL-4 levels (+Con A in vivo) + liver: TNF-alpha levels (+Con A in vivo)): 0.002%
- LOEL (short-term, duration: 10 days, oral, diet, M, C57BL/6, liver: IFN-gamma levels + liver: IL-4 levels + liver: IL-6 levels + liver: IL-6 levels (+Con A in vivo) + liver: TNF-alpha levels): 0.002%
- LOEL [5]: 0.02%
- NOEL [5]: 0.01%
- NOEL (short-term, duration: 10 days, oral, diet, M, C57BL/6, spleen: relative splenic DNA content): 0.02%
- LOEL (short-term, duration: 10 days, oral, diet, M, C57BL/6, spleen: spleen CD19+ cells + spleen: spleen CD3+ cells + spleen: spleen CD4+ cells + spleen: spleen CD8+ cells + spleen: spleen: absolute …): 0.02%
- LOEL (short-term, duration: 10 days, oral, diet, M, C57BL/6, spleen: spleen CD19+ cells + spleen: spleen CD4+ cells + spleen: spleen CD8+ cells + spleen: spleen cellularity + spleen: spleen NK1.1+ …): 0.02%
- LOEL (short-term, duration: 10 days, oral, diet, M, C57BL/6, spleen: spleen: absolute weight + spleen: spleen: relative weight + spleen: total splenic DNA content + thymus: relative thymic DNA content…): 0.02%
- NOEL (short-term, duration: 10 days, oral, diet, M, C57BL/6, spleen: spleen: absolute weight + thymocyte cell proliferation: G0/G1 phase 10 days recovery + thymocyte cell proliferation: G1/2 phase 2 …): 0.02%
